Results: ChEMBL document CHEMBL1142844, “A chemical strategy to promote helical peptide-protein interactions involved in apoptosis” (Bioorg Med Chem Lett, 2005)

Target: Apoptosis regulator Bcl-2 (Homo sapiens, UniProt P10415)
Test: Inhibition of BCL2 by fluorescence polarization based competitive binding assay
Conditions: not given; call rule not given here

Chain of Apoptosis regulator Bcl-2 (P10415 whole entry): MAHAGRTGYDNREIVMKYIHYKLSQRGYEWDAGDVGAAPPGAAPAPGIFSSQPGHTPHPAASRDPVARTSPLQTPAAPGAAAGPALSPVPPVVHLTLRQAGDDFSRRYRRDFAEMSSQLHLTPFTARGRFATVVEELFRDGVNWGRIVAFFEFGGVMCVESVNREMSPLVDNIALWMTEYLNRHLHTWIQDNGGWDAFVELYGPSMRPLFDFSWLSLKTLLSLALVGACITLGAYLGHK

**Q.** How did the IC50 turn out when H-QRYGRELRRMSDEFEG-OH was run?
**A.** Not Active

Same assay, conditions: read-out: IC50

**Q.** Which IC50 does the source give for H-RNIARHLAQVGDSMDR-OH here?
**A.** 22300 nM

**Q.** H-NRWAAQRYGRELRRMSDEFEGSFKGL-OH was tested. Which IC50 did it give?
**A.** 490 nM

**Q.** H-NLWAAQRYGRELRRMSDEFEGSAKGL-OH was tested. Which IC50 did it give?
**A.** 1360 nM

**Q.** With H-NLWAAQRYGRELRRMSDEFEGSFKGL-OH as the molecule, how does the IC50 read?
**A.** 300 nM

**Q.** Which IC50 does the source give for H-NLWAAKKLSECLKRIGDELDSSFKGL-OH here?
**A.** 1330 nM

**Q.** With H-QDASTKKLSECLKRIGDELDSNMELQ-OH as the molecule, how does the IC50 read?
**A.** 2880 nM

**Q.** With H-NLWAARNIARHLAQVGDSMDRSFKGL-OH as the molecule, how does the IC50 read?
**A.** 1560 nM

**Q.** Which IC50 does the source give for H-NLWAAQRYGRELRRMSDEFEG-OH here?
**A.** 5600 nM

**Q.** Which IC50 does the source give for H-NLWAAQRYGRELRRMSDEFEGAFKGL-OH here?
**A.** 800 nM

**Q.** Which IC50 does the source give for H-PSSTMGQVGRQLAIIGDDINRRYDSE-OH here?
**A.** 3030 nM

**Q.** Which IC50 does the source give for H-NLAAAQRYGRELRRMSDEFEGSFKGL-OH here?
**A.** 410 nM

**Q.** Which IC50 does the source give for CC[C@H](C)[C@H](NC(=O)[C@H](CC(N)=O)NC(=O)[C@H](CCCN=C(N)N)NC(=O)[C@@H](NC(=O)[C@@H](NC(=O)[C@H](CC(=O)O)NC(=O)[C@H](CCC(=O)O)NC(=O)[C@@H](N)CCC(N)=O)[C@@H](C)CC)[C@@H](C)CC)C(=O)N[C@@H](C)C(=O)N[C@@H](CCCN=C(N)N)C(=O)N[C@@H](Cc1c[nH]cn1)C(=O)N[C@@H](CC(C)C)C(=O)N[C@@H](C)C(=O)N[C@@H](CCC(N)=O)C(=O)N[C@H](C(=O)NCC(=O)N[C@@H](CC(=O)O)C(=O)N[C@@H](CO)C(=O)N[C@@H](CCSC)C(=O)N[C@@H](CC(=O)O)C(=O)N[C@@H](CCCN=C(N)N)C(=O)N[C@@H](CO)C(=O)N[C@H](C(=O)N1CCC[C@H]1C(=O)N1CCC[C@H]1C(=O)NCC(=O)O)[C@@H](C)CC)C(C)C here?
**A.** 14100 nM

**Q.** How did the IC50 turn out when H-KKLSECLKRIGDELDS-OH was run?
**A.** 29100 nM

**Q.** Which IC50 does the source give for H-QRYGRELRRMSDEFEGSFKGL-OH here?
**A.** 17500 nM

**Q.** Which IC50 does the source give for H-NLWAAGQVGRQLAIIGDDINRSFKGL-OH here?
**A.** 650 nM
